Consider 2 compounds from patent publication EP2462919A2, “Synergistic active agent combination for protecting the skin from IR radiation” (priority 2010, dated 2012).

What all share (type): cell-based
One test has as its system Kollagenase MMP-1. Put plainly: Gene expression of ageing marker MMP-1 in cultured monolayer fibroblasts after substance treatment and infrared irradiation. The following applies: for Expression der Kollagenase MMP-1 (result in words): Fibroblasten, Infrarot-Strahlen 760-1400 nm, after treatment. From the text: (§1) 1. In vitro Assays hinsichtlich der Expression typischer Altersmarker in kultivierten Fibroblasten nach Substanzgabe und Infrarotbestrahlung
(§2) Methode: Monolayer-Fibroblasten wurden 24 Stunden vor und 24 Stunden nach Infrarot-Bestrahlung mit Lipochroman (Dimethylmethoxy Chromanol, 0,005 Gew.-%), Taurin (2-Aminoethansulfonsäure 0,005 Gew.-%) und Kombinationen beider Substanzen behandelt. Im Folgenden wurde die Genexpression der zwei Hautalterungsmarker Kollagenase MMP-1, das hinsichtlich der Hautalterung wichtigste Kollagen abbauende Enzym, und des spezifischen Inhibitors der Kollagenase MMP-1, TIMP-1 (tissue inhibitor of metalloproteinase 1), untersucht. Die Genexpressionswerte wurden im Folgenden auf die Werte der jeweiligen unbehandelten Kontrolle relativiert. Als Kontrollen wurden Fibroblasten analysiert, die ausschließlich mit Infrarot bestrahlt wurden.

Test [1] relates to TIMP-1 (tissue inhibitor of metalloproteinase 1). Put plainly: Gene expression of ageing marker TIMP-1 in cultured monolayer fibroblasts after substance treatment and infrared irradiation. The following applies: for Expression von TIMP-1 (result in words): Fibroblasten, Bestrahlung mit Infrarot-Strahlen, after treatment.
Text: as §1, §2

A further test concerns MMP1 / TIMP-1. Put plainly: MMP-1 / TIMP-1 expression ratio (collagen build-up/degradation balance) in fibroblasts after substance treatment and infrared irradiation. Particulars: Monolayer-Fibroblasten, mit Infrarot A bestrahlt, irradiated-only control 1,2.
Text: as §1
[…] Im Folgenden wurde die Genexpression der zwei Hautalterungsmarker Kollagenase MMP-1, das hinsichtlich der Hautalterung wichtigste Kollagen abbauende Enzym, und des spezifischen Inhibitors der Kollagenase MMP-1, TIMP-1 (tissue inhibitor of metalloproteinase 1), untersucht. Die Genexpressionswerte wurden im Folgenden auf die Werte der jeweiligen unbehandelten Kontrolle relativiert. Als Kontrollen wurden Fibroblasten analysiert, die ausschließlich mit Infrarot bestrahlt wurden.
Entscheidend für die Balance des Auf- und Abbaus von Kollagen in der Dermis ist das Verhältnis zwischen MMP-1 und TIMP-1. Ist dieses Verhältnis größer als der Vergleichswert, so kann von einem vermehrten Abbau durch die Kollagenase ausgegangen werden, ist das Verhältnis kleiner, so wird der Abbau vermehrt verhindert und neues Kollagen kann synthetisiert werden.

For `COc1cc2c(cc1O)CCC(C)(C)O2` [Lipochroman-6, 3,4-Dihydro-7-methoxy-2,2-dimethyl-2H-2 1-benzopyran-6-ol], the fold induction at 0.005 % in the test on Kollagenase MMP-1 (Fibroblast, light or radiation study, Monolayer-Fibroblasten, mit Infrarot A bestrahlt, 0,005 % Lipochroman-6, treated 24 h before and 24 h after irradiation, read-out: MMP-1 Regulierung mRNA (Gene Expression versus Sham control)) turned out to be 1.75; in test [1] (Fibroblast, light or radiation study, Monolayer-Fibroblasten, mit Infrarot A bestrahlt, 0,005 % Lipochroman-6, treated 24 h before and 24 h after irradiation, read-out: TIMP-1 Regulierung mRNA (Gene Expression versus Sham control)), 1.65. Further, the “Expression der Kollagenase MMP-1 (result in words)” value in the test with Kollagenase MMP-1 is reported as “erhöhten Expressionswerten”. The “Expression von TIMP-1 (result in words)” value in test [1] is given as “starken Expressionssteigerung”. For the same compound, the “MMP1 / TIMP-1 Ratio” value in the test with MMP1 / TIMP-1 (0,005 % Lipochroman-6) is on record as 2,7.

As to `NCCS(=O)(=O)O` [Taurin, 2-Aminoethansulfonsäure], the fold induction at 0.05 % was 2.05 in the test on Kollagenase MMP-1 (Fibroblast, light or radiation study, Monolayer-Fibroblasten, mit Infrarot A bestrahlt, 0,05 % Taurin, treated 24 h before and 24 h after irradiation, read-out: MMP-1 Regulierung mRNA (Gene Expression versus Sham control)); 1.1 in test [1] (Fibroblast, light or radiation study, Monolayer-Fibroblasten, mit Infrarot A bestrahlt, 0,05 % Taurin, treated 24 h before and 24 h after irradiation, read-out: TIMP-1 Regulierung mRNA (Gene Expression versus Sham control)). The “Expression der Kollagenase MMP-1 (result in words)” value in the test on Kollagenase MMP-1 is on record as “erhöhten Expressionswerten”. Further, the “Expression von TIMP-1 (result in words)” value in test [1] is “leichten Steigerung der Expression”. Besides, in the test with MMP1 / TIMP-1 (0,05 % Taurin), the “MMP1 / TIMP-1 Ratio” value is listed as 1,6.
